Laboratory results taken from ChEMBL document CHEMBL1133834, “Design and synthesis of Pfmrk inhibitors as potential antimalarial agents” (Bioorg Med Chem Lett, 2001).

Assays:
[1] = biological target: T1, Protein kinase Pfmrk (Plasmodium falciparum, UniProt P90584); experiment: Inhibition of Plasmodium falciparum cyclin dependent protein kinase (Pfmrk)
T1 sequence (P90584 whole entry): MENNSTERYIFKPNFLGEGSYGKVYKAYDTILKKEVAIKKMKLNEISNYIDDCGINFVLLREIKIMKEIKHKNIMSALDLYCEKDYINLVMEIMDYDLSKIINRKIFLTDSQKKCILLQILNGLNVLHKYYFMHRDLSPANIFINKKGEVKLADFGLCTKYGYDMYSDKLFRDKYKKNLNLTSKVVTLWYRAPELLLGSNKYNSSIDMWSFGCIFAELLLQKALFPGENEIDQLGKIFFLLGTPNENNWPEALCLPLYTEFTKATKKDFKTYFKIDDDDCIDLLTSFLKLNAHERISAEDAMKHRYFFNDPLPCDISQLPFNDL

[2] = biological target: T1, Protein kinase Pfmrk; experiment: Inhibition of Plasmodium falciparum cyclin dependent protein kinase (No inhibition)

Row | IC50 [1] | IC50 [2] | SMILES
1 | – | Not Active | Oc1nc2ccccc2c2oc3ccccc3c12
2 | 539 µM | – | Oc1ccc2nc(O)c3c4ccccc4oc3c2c1

Further lines, the compound ahead of its results:

Row | SMILES | IC50 [1] | IC50 [2]
3 | Oc1ccc2nc3oc4ccccc4c3c(O)c2c1 | 187 µM | –
4 | Oc1c2ccccc2nc2oc3ccccc3c12 | < 371 µM | –
5 | Oc1[nH]c2ccccc2c2nc3ccccc3c1-2 | – | Not Active
6 | OCCOc1cccc(-c2cc3ccccc3nc2O)c1 | 18 µM | –
7 | O=C(O)COc1cccc(-c2cc3ccccc3nc2O)c1 | 102 µM | –
